“Also recorded” adds a separate entry of the source. Read-outs that look alike come from different tables or passages of the source.
How the values were obtained:
[1] = system: mice; assay: ACPA-induced pain (mechanical hypersensitivity) in mice, von Frey filaments; format: in vivo, mouse; settings: 5 mg/kg s.c. once daily; C03 2 mg i.v.; p<0.01
Protocol: Starting day 1, the PAD inhibitor 2-2-Chloroacetamide (C0267, Sigma Aldrich) was injected subcutaneously s.c. (in 100 μl saline with 5% DMSO) once daily (5 mg/kg/day) for 10 days.
Withdrawal thresholds of the hind paws were assessed using von Frey filaments as previously described (Bas, D. B. et al., 2012). In brief, the mice were habituated in individual compartments on top of a wire-mesh surface (Ugo Basile) prior to experiment. On test days, mice were given time to acclimatize and then optiHair filaments (Marstock OptiHair) of increasing buckling force (0.5, 1, 2, 4, 8, 16, and 32 mN) were applied to the plantar surface of the paw until the filament bent slightly. A brisk withdrawal of the paw within 2-3 seconds was noted as a positive response. A 50% withdrawal threshold was calculated using the Dixon up-down method (Chaplan, S. R., et al., 1994) and results from both hind paws were averaged and presented as % of baseline values.

[2] = system: iDC-derived OCs; assay: iDC-derived osteoclast culture, TRAP staining (OC numbers); format: cell-based, human; settings: RANKL and M-CSF
Text: (§1) The medium was exchanged every three days.
(§2) IL-8 was neutralized in the cell supernatants using an anti-IL-8/CXCL8 neutralizing antibody (clone MAB208, R&D systems, UK). PAD activity was inhibited using a pan-PAD inhibitor Cl-amidine (Cayman chemical, Michigan, USA), either at the initiation of the OC cultures or three days before the end of culturing.

[3] = system: ACPA-stimulated OCs; assay: ACPA-stimulated OC calcium phosphate resorption with inhibitor; format: cell-based, human; settings: PADi added from the beginning of the OC cultures
Text: as §1, §2

[4] = system: citrullinated targets in mature OCs; assay: immunohistochemistry of citrullinated targets in mature OCs with PAD inhibitor; format: cell-based, human; settings: inhibitor added from the beginning of the cultures; mB02 staining
Protocol: Murinized monoclonal IgG2a ACPAs (D10, B02, C07) and control antibody (E02) were used to investigate the presence of citrullinated proteins during OC maturation. A rabbit polyclonal anti-PAD2 (Cosmo Bio, Tokyo, Japan) and a monoclonal mouse anti-PADI4 (Abcam, Cambridge, UK) antibody were used to investigate the cellular expression of PAD enzymes during OC maturation. Mφ- and iDC-derived OCs were cultured in 8-well glass chamber slides.
Cells at different stages of differentiation were fixed with 2% (vol/vol) formaldehyde (Sigma-Aldrich, Stockholm, Sweden) at 4° C. and stored at −70° C. until use. Following blocking of endogenous peroxidase and avidin-biotin activity, the slides were incubated with primary monoclonal antibodies. HRP conjugated anti-mouse antibody was used as a secondary antibody and developed with 3,3-diaminobenzidene (DAB) for 7 minutes. The slides were counterstained with Mayer's hematoxylin, dehydrated and permanently mounted and viewed using a light microscope (Reichert Polyvar 2 type 302001, Leica).

[5] = system: antibody-mediated arthritis; settings: Willis et al.; cited from earlier work
[6] = system: ACPA-stimulated OCs; assay: ACPA-stimulated osteoclastogenesis with inhibitor, TRAP staining; format: cell-based, human
Text: as §1, §2

[7] = system: Mφ-derived OCs; assay: Mφ-derived osteoclast culture, TRAP staining (OC numbers); format: cell-based, human; settings: for unstimulated OC differentiation (OC numbers): RANKL and M-CSF, early PAD inhibition (at initiation of OC culture)
[8] = system: collagen-induced arthritis; settings: Willis et al., cited from earlier work
[9] = system: OCs; assay: LDH cytotoxicity assay in OC culture supernatants; format: cell-based, human; settings: OC cultures with PAD inhibitor
Protocol: (§3) The LDH levels in the cell-free culture supernatants were measured using an LDH cytotoxicity assay kit (Roche Diagnostics Scandinavia AB, Bromma, Sweden) according to the manufacturer's instructions.

[10] = system: RA-derived synovial fibroblasts; assay: LDH cytotoxicity assay in synovial fibroblast supernatants; format: cell-based, human; settings: PADi at similar doses as in OC cultures
Protocol: (§4) Synovial fibroblasts were isolated from the synovial tissue of RA patients by enzymatic digestion. The cells were growth at 37° C. in 5% CO2 in Dulbecco's modified Eagle medium (DMEM, Sigma-Aldrich, Stockholm, Sweden) with 10% (v/v) heat-inactivated fatal cow serum (FCS, Sigma-Aldrich, Stockholm, Sweden), 100 U/ml penicillin, 100 μg/ml streptomycin and L-glutamine. The cells at passages 4-8 were used throughout this study. Twenty four-well plates were pre-coated with collagen (50 μg/ml), followed by 1 hour of blocking with 3% BSA (Sigma). A sufficient number of SFs were grown to 80-90% confluence and serum starved for 1-2 hours. The scratches were then made using a P-200 pipette tip. The floating cells were removed by washing with PBS. The cells were incubated with or without PAD inhibitors at the indicated concentration for 48 hours. Light microscope images were taken immediately at 0 and 5 hours after scratching. The images were analyzed using NIH ImageJ. The closure areas were normalized to medium control, and these values represent the migration index.
as §3

[11] = system: RA-derived synovial fibroblasts; assay: synovial fibroblast in vitro scratch assay (migration index); format: cell-based, human; settings: PADi at similar doses as in OC cultures
Protocol: as §4

[12] = system: human neutrophils; settings: cited from earlier work
[13] = target: T1, PAD4 (Homo sapiens, UniProt Q9UM07); parameters: endogenous in cells; host or cells: human neutrophils; settings: cited from earlier work
Target sequence in this assay (Q9UM07 whole entry): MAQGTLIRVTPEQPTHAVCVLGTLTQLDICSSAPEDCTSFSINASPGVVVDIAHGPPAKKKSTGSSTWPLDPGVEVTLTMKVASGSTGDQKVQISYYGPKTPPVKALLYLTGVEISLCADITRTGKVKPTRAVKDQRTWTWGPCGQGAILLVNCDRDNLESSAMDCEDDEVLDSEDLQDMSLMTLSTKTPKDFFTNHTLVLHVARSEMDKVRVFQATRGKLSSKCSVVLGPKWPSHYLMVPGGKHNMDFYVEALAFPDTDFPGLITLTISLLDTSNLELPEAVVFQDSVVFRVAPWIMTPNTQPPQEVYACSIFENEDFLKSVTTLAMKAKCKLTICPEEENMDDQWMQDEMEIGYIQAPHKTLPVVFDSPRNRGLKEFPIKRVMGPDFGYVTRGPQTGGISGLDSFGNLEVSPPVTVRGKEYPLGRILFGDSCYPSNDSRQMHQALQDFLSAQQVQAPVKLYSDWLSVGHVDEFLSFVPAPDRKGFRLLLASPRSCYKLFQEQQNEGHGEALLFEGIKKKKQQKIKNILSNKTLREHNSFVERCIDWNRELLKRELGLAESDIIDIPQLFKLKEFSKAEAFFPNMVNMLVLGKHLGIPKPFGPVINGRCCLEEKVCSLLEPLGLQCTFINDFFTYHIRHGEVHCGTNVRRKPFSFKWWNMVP

[14] = system: mouse neutrophils; settings: cited from earlier work
[15] = mouse; cited from earlier work
[16] = rat; cited from earlier work
[17] = target: T1, PAD4; settings: cited from earlier work
Target sequence in this assay (Q9UM07 whole entry, species assumed): as the sequence (Q9UM07 whole entry) above

[18] = system: Balb/c mice; assay: ACPA-induced systemic bone loss in mice, micro-CT of tibia; format: in vivo, mouse; settings: s.c. twice daily 30 mg/kg/day for 6 days from day 6
Protocol: Animal experiments were conducted using adult male Balb/c (Harlan) 15 weeks of age. Mice were housed in standard cages (3-5 per cage) in a climate controlled environment maintaining a 12-hour light/dark cycle with access to food and water ad libitum. All experiments were approved by the local ethics committee for animal experiments in Sweden. […] Starting day 6, the CXCR2 antagonist reparixin (L-lysin salt, HY-15252, MedChem Express) was injected subcutaneously (s.c. in 100 μl saline) twice daily (30 mg/kg/day) for 6 days. At the end of the study, mice were anesthetized using 4% isoflurane, decapitated and left hind leg removed and post-fixed in 4% PFA until further analysis.
Bone structure was analyzed using a SkyScan 1176 micro-CT (Bruker) with a voxel size of 9 μm. The scanning was conducted at 50 kV/480 ρA with a 0.2 mm aluminum filter. The exposure time was 900 ms. The x-ray projections were obtained at 0.4° intervals with a scanning angular rotation of 180°. The projection images were reconstructed into 3-dimensional images using NRecon software (version 1.6.9.8; Bruker) and analyzed using CTVox software (version 2.7.0; Bruker). Trabecular bone in tibia located 644 μm from the proximal growth plate and extending 100.5 μm was analysed regarding BMD and 3D analysis and a volume of cortical bone in tibia mesasuring 617 μm in length, located in the distal tibia was measured for TMD, using CTAnalyzer software (version 1.14.4.1; Bruker). The 3D structures of each joint were blindly assessed by two observers (T.J. and M.M.).

[19] = target: T1, PAD4; settings: cited from earlier work; remark: listed apart in the source
Target sequence in this assay (Q9UM07 whole entry, species assumed): as the sequence (Q9UM07 whole entry) above

[20] = early PAD inhibition, doses as low as 0.2 μM

Molecule: NC(=O)CCl [2-Chloroacetamide (2CA), 2-Chloroacetamide]
- pain (mechanical hypersensitivity) induced by ACPA antibody C03 [1]: prevents

Molecule: N=C(CCl)NCCC[C@H](NC(=O)c1ccccc1)C(N)=O [Cl-amidine, N-α-benzoyl-N5-(2-chloro-1-iminoethyl)-L-Orn amide]
- OC differentiation from iDC [2]: dose-dependent inhibition
- ACPA-induced calcium phosphate resorption [3]: prevented
- staining intensity of citrullinated targets in OCs after PAD inhibitor treatment [4]: markedly diminished
- effect on antibody-mediated arthritis [5]: no effect
- ACPA-mediated osteoclastogenesis (OC activation) ([6]; PADi added from the beginning of the cultures): not able to promote OCs activation; also recorded: affects both unstimulated and ACPA-mediate osteoclastogenesis; also recorded: prevented
- ACPA-mediated osteoclastogenesis [6, 20]: still able to inhibit; also recorded: inhibits
- ACPA-mediated osteoclastogenesis ([6]; late PAD inhibition (three days before ending the OC cultures), doses as high as 20 μM): affects only ACPA-mediated osteoclastogenesis
- unstimulated OC differentiation (OC numbers) [7]: dose-dependent inhibition; also recorded: dose-dependently inhibited
- unstimulated OC differentiation (OC numbers) ([7]; listed as PADi): affects both unstimulated and ACPA-mediate osteoclastogenesis
- unstimulated differentiation of OCs [7, 20]: no longer able to affect
- disease activity in collagen-induced arthritis [8]: decreases disease activity
- bone damage in collagen-induced arthritis ([8]; in the context of lower synovial inflammation): lower bone damage
- cell death, LDH release in the supernatants [9]: without inducing cell death; also recorded: without any cytotoxic effect
- fibroblast survival (LDH assay) [10]: no changes; also recorded: does not affect
- fibroblast migration (migration index) [11]: no changes; also recorded: does not affect

Molecule: COc1cc(C(=O)N2CC[C@@H](O)[C@@H](N)C2)cc2nc(-c3cc4ccccc4n3CC3CC3)n(C)c12 [GSK484, [(3S,4R)-3-amino-4-hydroxy-1-piperidinyl][2-[1-(cyclopropylmethyl)-1H-indol-2-yl]-7-methoxy-1-methyl-1H-benzimidazol-5-yl]-methanone]
- formation of neutrophil extracellular traps [12]: inhibits
- citrullination of PAD4 target proteins in human neutrophils [13]: blocks
- formation of neutrophil extracellular traps [14]: inhibits
- pharmacokinetic profile [15]: favorable
- pharmacokinetic profile [16]: favorable

Molecule: Cn1c(-c2nc3cc(C(=O)N4CCCC(N)C4)ccc3n2C)cc2ccccc21 (stereo not drawn) [GSK-121, (3-amino-1-piperidinyl)[1-methyl-2-(1-methyl-1H-indol-2-yl)-1H-benzimidazol-5-yl]-methanone, 2,2,2-trifluoroacetate]
- IC50 ([17]; functional assay, read-out: IC50, inhibition of citrullination of PAD4 target proteins): 3200 nM

Molecule: CC(C)Cc1ccc([C@@H](C)C(=O)NS(C)(=O)=O)cc1 [reparixin]
- ACPA-induced change of bone volume fraction [18]: reversed
- ACPA-induced change of trabecular bone mineral density (BMD) [18]: reversed
- ACPA-induced change of trabecular number [18]: reversed

Molecule: (3-amino-1-piperidinyl)[1-methyl-2-(1-methyl-1H-indol-2-yl)-1H-benzimidazol-5-yl]-methanone, 2,2,2-trifluoroacetate [GSK199]
- formation of neutrophil extracellular traps [14]: diminish
- IC50 ([19]; binds to the low-calcium form of the enzyme): 200 nM
- selectivity for PAD4 over PAD1-3 [19]: selective for PAD4 over PAD1-3
- inhibition of citrullination of PAD4 target proteins [17]: can inhibit

Molecule: adalimumab
- effect of ACPAs on osteoclastogenesis ([6]; antibody concentrations as high as 10 μg/ml): No such effects

Reference: patent US20170105971A1, “METHODS AND COMPOUNDS FOR THE TREATMENT OF BONE LOSS AND/OR PAIN” (priority 2015, published 2017)
